Data published in PubChem BioAssay (NCI).
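Values below derive from 48-hour exposures of cells grown in 96-well plates, with endpoints linearly interpolated between the two concentrations bracketing the appropriate inhibition level. At the GI50, growth is halved. TGI: concentration producing complete growth inhibition.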

Tests used:
Experiment in all cases: growth of human tumour cells (NCI), 48 h
786-0 renal = tested on: 786-0 renal
A498 renal = tested on: A498 renal
A549 NSCLC = tested on: A549 NSCLC
ACHN renal = tested on: ACHN renal
BT-549 breast = tested on: BT-549 breast
CAKI-1 renal = tested on: CAKI-1 renal
CCRF-CEM leukemia = tested on: CCRF-CEM leukemia
COLO 205 colon = tested on: COLO 205 colon
DU-145 prostate = tested on: DU-145 prostate
EKVX NSCLC = tested on: EKVX NSCLC
HCC-2998 colon = tested on: HCC-2998 colon
HCT-116 colon = tested on: HCT-116 colon
HCT-15 colon = tested on: HCT-15 colon
HL-60(TB) leukemia = tested on: HL-60(TB) leukemia
HOP-62 NSCLC = tested on: HOP-62 NSCLC
HOP-92 NSCLC = tested on: HOP-92 NSCLC
HS 578T breast = tested on: HS 578T breast
HT29 colon = tested on: HT29 colon
IGROV1 ovarian = tested on: IGROV1 ovarian
K-562 leukemia = tested on: K-562 leukemia
KM12 colon = tested on: KM12 colon
LOX IMVI melanoma = tested on: LOX IMVI melanoma
M14 melanoma = tested on: M14 melanoma
MALME-3M melanoma = tested on: MALME-3M melanoma
MCF7 breast = tested on: MCF7 breast
MDA-MB-231 breast = tested on: MDA-MB-231 breast
MDA-MB-435 = tested on: MDA-MB-435
MOLT-4 leukemia = tested on: MOLT-4 leukemia
NCI-H226 lung = tested on: NCI-H226 lung
NCI-H23 lung = tested on: NCI-H23 lung
NCI-H460 lung = tested on: NCI-H460 lung
NCI-H522 lung = tested on: NCI-H522 lung
NCI/ADR-RES ovarian = tested on: NCI/ADR-RES ovarian
OVCAR-3 ovarian = tested on: OVCAR-3 ovarian
OVCAR-4 ovarian = tested on: OVCAR-4 ovarian
OVCAR-5 ovarian = tested on: OVCAR-5 ovarian
OVCAR-8 ovarian = tested on: OVCAR-8 ovarian
PC-3 prostate = tested on: PC-3 prostate
RPMI-8226 leukemia = tested on: RPMI-8226 leukemia
RXF 393 renal = tested on: RXF 393 renal
SF-268 CNS = tested on: SF-268 CNS
SF-295 CNS = tested on: SF-295 CNS
SF-539 CNS = tested on: SF-539 CNS
SK-MEL-28 melanoma = tested on: SK-MEL-28 melanoma
SK-MEL-5 melanoma = tested on: SK-MEL-5 melanoma
SK-OV-3 ovarian = tested on: SK-OV-3 ovarian
SN12C renal = tested on: SN12C renal
SNB-19 CNS = tested on: SNB-19 CNS
SNB-75 CNS = tested on: SNB-75 CNS
SR leukemia = tested on: SR leukemia
SW-620 colon = tested on: SW-620 colon
T-47D breast = tested on: T-47D breast
TK-10 renal = tested on: TK-10 renal
U251 CNS = tested on: U251 CNS
UACC-257 melanoma = tested on: UACC-257 melanoma
UACC-62 melanoma = tested on: UACC-62 melanoma
UO-31 renal = tested on: UO-31 renal

In the case of `O=C(Nc1ncc([N+](=O)[O-])s1)c1cccc([N+](=O)[O-])c1`, the GI50 (786-0 renal) is reported as 2.57 µM, the TGI (786-0 renal) is reported as greater than 92 µM and the GI50 (A498 renal) is reported as 2.1 µM. For the same molecule, the TGI (A498 renal) was 24.5 µM, the GI50 (A549 NSCLC) was 4.24 µM and the TGI (A549 NSCLC) was 42.5 µM. For the same molecule, the GI50 (ACHN renal) was 5.41 µM, the TGI (ACHN renal) was greater than 68.1 µM and the GI50 (BT-549 breast) was 2.78 µM. For the same molecule, the TGI (BT-549 breast) was 11 µM, the GI50 (CAKI-1 renal) was 3.7 µM and the TGI (CAKI-1 renal) was 22.7 µM. It also gave a GI50 (CCRF-CEM leukemia) of 2.39 µM, a TGI (CCRF-CEM leukemia) greater than 29.2 µM and a GI50 (COLO 205 colon) of 4 µM. It also gave a TGI (COLO 205 colon) of 24.7 µM, a GI50 (DU-145 prostate) of 9.89 µM and a TGI (DU-145 prostate) greater than 100 µM. The GI50 (EKVX NSCLC) was 2.8 µM, the TGI (EKVX NSCLC) was greater than 100 µM and the GI50 (HCC-2998 colon) was 3.2 µM. The TGI (HCC-2998 colon) was greater than 100 µM, the GI50 (HCT-116 colon) was 2.72 µM and the TGI (HCT-116 colon) was 16.5 µM. The GI50 (HCT-15 colon) was 6.11 µM, the TGI (HCT-15 colon) was greater than 100 µM and the GI50 (HL-60(TB) leukemia) was 2.35 µM. The TGI (HL-60(TB) leukemia) was 8.27 µM, the GI50 (HOP-62 NSCLC) was 3.75 µM and the TGI (HOP-62 NSCLC) was greater than 40.9 µM. It also gave a GI50 (HOP-92 NSCLC) of 1.99 µM, a TGI (HOP-92 NSCLC) of 6.86 µM and a GI50 (HS 578T breast) of 1.72 µM. The TGI (HS 578T breast) was greater than 28.4 µM, the GI50 (HT29 colon) was 4.43 µM and the TGI (HT29 colon) was 97.2 µM. It also gave a GI50 (IGROV1 ovarian) of 3.98 µM, a TGI (IGROV1 ovarian) greater than 56.3 µM and a GI50 (K-562 leukemia) of 2.49 µM. For the same molecule, the TGI (K-562 leukemia) was greater than 40 µM, the GI50 (KM12 colon) was 4.61 µM and the TGI (KM12 colon) was 65.6 µM. It also gave a GI50 (LOX IMVI melanoma) of 3.66 µM, a TGI (LOX IMVI melanoma) greater than 100 µM and a GI50 (M14 melanoma) of 3.85 µM. For the same molecule, the TGI (M14 melanoma) was 24.1 µM, the GI50 (MALME-3M melanoma) was 2.79 µM and the TGI (MALME-3M melanoma) was 8.5 µM. For the same molecule, the GI50 (MCF7 breast) was 3.02 µM, the TGI (MCF7 breast) was greater than 88.2 µM and the GI50 (MDA-MB-231 breast) was 5.12 µM. The TGI (MDA-MB-231 breast) was 54.5 µM, the GI50 (MDA-MB-435) was 3.16 µM and the TGI (MDA-MB-435) was 20.9 µM. It also gave a GI50 (MOLT-4 leukemia) of 3.04 µM, a TGI (MOLT-4 leukemia) greater than 34.1 µM and a GI50 (NCI-H226 lung) of 4.1 µM. It also gave a TGI (NCI-H226 lung) greater than 60.1 µM, a GI50 (NCI-H23 lung) of 2.87 µM and a TGI (NCI-H23 lung) greater than 78.2 µM. For the same molecule, the GI50 (NCI-H460 lung) was 2.8 µM, the TGI (NCI-H460 lung) was greater than 100 µM and the GI50 (NCI-H522 lung) was 3.18 µM. It also gave a TGI (NCI-H522 lung) of 65.9 µM, a GI50 (NCI/ADR-RES ovarian) of 3.32 µM and a TGI (NCI/ADR-RES ovarian) greater than 100 µM. It also gave a GI50 (OVCAR-3 ovarian) of 3.18 µM, a TGI (OVCAR-3 ovarian) greater than 100 µM and a GI50 (OVCAR-4 ovarian) of 3.97 µM. The TGI (OVCAR-4 ovarian) was greater than 100 µM, the GI50 (OVCAR-5 ovarian) was 12.4 µM and the TGI (OVCAR-5 ovarian) was greater than 100 µM. It also gave a GI50 (OVCAR-8 ovarian) of 3.2 µM, a TGI (OVCAR-8 ovarian) of 20.3 µM and a GI50 (PC-3 prostate) of 2.99 µM. It also gave a TGI (PC-3 prostate) greater than 100 µM, a GI50 (RPMI-8226 leukemia) of 1.43 µM and a TGI (RPMI-8226 leukemia) of 5.41 µM. It also gave a GI50 (RXF 393 renal) of 2.44 µM, a TGI (RXF 393 renal) of 6.91 µM and a GI50 (SF-268 CNS) of 8.25 µM. It also gave a TGI (SF-268 CNS) greater than 100 µM, a GI50 (SF-295 CNS) of 2.71 µM and a TGI (SF-295 CNS) of 35.1 µM. For the same molecule, the GI50 (SF-539 CNS) was 3.23 µM, the TGI (SF-539 CNS) was 37.1 µM and the GI50 (SK-MEL-28 melanoma) was 4.64 µM. It also gave a TGI (SK-MEL-28 melanoma) greater than 55.5 µM, a GI50 (SK-MEL-5 melanoma) of 2.75 µM and a TGI (SK-MEL-5 melanoma) of 11.5 µM. The GI50 (SK-OV-3 ovarian) was 3.72 µM, the TGI (SK-OV-3 ovarian) was 35.7 µM and the GI50 (SN12C renal) was 2.73 µM. It also gave a TGI (SN12C renal) greater than 53.3 µM, a GI50 (SNB-19 CNS) of 3.53 µM and a TGI (SNB-19 CNS) greater than 100 µM. The GI50 (SNB-75 CNS) was 10.7 µM, the TGI (SNB-75 CNS) was 88 µM and the GI50 (SR leukemia) was 2.36 µM. For the same molecule, the TGI (SR leukemia) was 9.01 µM, the GI50 (SW-620 colon) was 6.04 µM and the TGI (SW-620 colon) was greater than 100 µM. For the same molecule, the GI50 (T-47D breast) was 2.02 µM, the TGI (T-47D breast) was 12.9 µM and the GI50 (TK-10 renal) was 4.59 µM. For the same molecule, the TGI (TK-10 renal) was 37.3 µM, the GI50 (U251 CNS) was 3.54 µM and the TGI (U251 CNS) was greater than 100 µM. The GI50 (UACC-257 melanoma) was 3.19 µM, the TGI (UACC-257 melanoma) was 13.8 µM and the GI50 (UACC-62 melanoma) was 2.38 µM. It also gave a TGI (UACC-62 melanoma) greater than 32.7 µM, a GI50 (UO-31 renal) of 2.55 µM and a TGI (UO-31 renal) of 9.87 µM.
